Measurements taken from patent US9963461B2, “Phillygenin ibuprofen ester, preparation method therefor, and application thereof” (priority 2014, dated 2018).
Marks after values point to notes of the source that are not given here.

Legend:
[1] = tested on: sweat secretion of rat paw part; assay: Sweat secretion of rat paw part (coloring method); assay type: in vivo, Wistar rats; conditions: 300.0 mg/kg intragastric; for Animal number of sweat points of level +: + = sweat area below about 10%; for Animal number of sweat points of level ++: ++ = sweat area about 11-40%; for Animal number of sweat points of level +++: +++ = sweat area about 41-70%; for Animal number of sweat points of level ++++: ++++ = sweat area over 71%; for Animal number of sweat points of level −: − = no sweat point
From the text: This test was designed to observe the change of sweat secretion based on the mechanism that sweat gland is distributed on the rat paw pads, and iodine and starch can have purple reaction when encountered with sweat. In the test, 350 Wistar rats were selected, with equal male and female number, weighing 120-150 g. […] The rats were placed in a self-made rat fixation bag, with the double hind limbs exposed. The dirts on the right paw was gently scrubbed clean with the cotton swab dipped with anhydrous ethanol. Besides that subcutaneous injection was used for the pilocarpine solution, intragastric administration was used for all the other groups. […] When the test was complete, statistical process was carried out according to the rank-sum test with two-sample comparison, in order to compare the difference between the groups.

Enterovirus EV71 = assay: Impact of the drugs on the virus-induced cytopathy (MTT); assay type: cell-based; conditions: EV71 100 TCID50, Vero cells, about the maximal non-cytotoxic concentration, 72 hours
[2] = tested on: beer yeast induced rat fever; assay: Beer yeast induced rat fever; assay type: in vivo, Wistar rats; conditions: 300 mg/kg
Experimental: Male Wistar rats were selected, weighing 180-200 g. Before the test, WSC-411P portable digital thermometer was used to measure the normal rectal temperature twice (with certain interval for each time), and the average value of the two measurements was taken as the normal body temperature of the rat. Then 70 rats with the body temperature between 36.5° C. and 38° C. were chosen to be randomly divided into 7 groups by weight: the model (0.5% carboxymethylcellulose) group, the 2.5, 5, and 10 mg/kg phillygenin ibuprofen ester groups, the positive drug paracetamol (100 mg/kg) group, the ibuprofen group (i.e. prodrug control group, 300 mg/kg), the phillygenin group (100 mg/kg), with 10 rats for each group. Each group of rats were subjected to back subcutaneous injection with 10% fresh beer yeast suspension of 10 ml/kg to induce heat. After administration of 10% fresh beer yeast suspension for 6.0 h, phillygenin ibuprofen ester and paracetamol were both subjected to intragastric administration, and the model group was intragastrically administrated with equal volume of 0.5% carboxymethylcellulose. Rectal temperature was measured after 1 h, 2 h, 3 h and 4 h of the administration respectively. Changes in the body temperature were observed and difference between the groups was compared by inter-group t test processing through antipyretic percentage.

[3] = tested on: respiratory syncytial virus (RSV); assay: Impact of the drugs on the virus-induced cytopathy (MTT); assay type: cell-based; conditions: RSV 100 TCID50, Vero cells, about the maximal non-cytotoxic concentration, 72 hours
influenza virus = assay: as above; assay type: cell-based; conditions: influenza virus 100 TCID50, Vero cells, about the maximal non-cytotoxic concentration, 72 hours
[4] = tested on: Herpes Simplex Virus type I (HSV-1); assay: as above; assay type: cell-based; conditions: HSV-I 100 TCID50, Vero cells, about the maximal non-cytotoxic concentration, 72 hours
[5] = tested on: mice pain induced by acetic acid; assay: Analgesic test, mice writhing induced by acetic acid; assay type: in vivo, Kunming mice; conditions: 300 mg/kg intragastric; within 15 min after 0.7% acetic acid
Experimental: 72 Kunming mice were randomly divided into 6 groups, with 12 mice for each group. (1) the blank normal control group (i.e. saline group, […]); (2) positive drug aspirin group (200 mg/kg); (3) ibuprofen group (300 mg/kg); (4) high dose group of phillygenin ibuprofen ester (300 mg/kg); (5) medium dose group of phillygenin ibuprofen ester (150 mg/kg); (6) low dose group of phillygenin ibuprofen ester (75 mg/kg). […] The number of mice writhings within 15 min after administration was recorded. The number of writhings was taken as the evaluation index to evaluate the analgesic effect.

parainfluenza virus = assay: Impact of the drugs on the virus-induced cytopathy (MTT); assay type: cell-based; conditions: parainfluenza virus 100 TCID50, Vero cells, about the maximal non-cytotoxic concentration, 72 hours
[6] = after coating B liquid for 1 minute
[7] = after coating B liquid for 5 minutes
[8] = after coating B liquid for 10 minutes
[9] = after coating B liquid for 15 minutes (Table 2-4)
[10] = after coating B liquid for 15 minutes (Table 2-5)

With `CC(C)Cc1ccc(C(C)C(=O)O)cc1` (stereo not drawn) [Ibuprofen] the “Animal number of sweat points of level +” value [1, 6] was 1, the “Animal number of sweat points of level ++” value [1, 6] was 3 and the “Animal number of sweat points of level +++” value [1, 6] was 1. For the same compound, the “Animal number of sweat points of level ++++” value (“Animal number … of level ++++” for short) [1, 6] was 5, the “Animal number of sweat points of level −” value [1, 6] was 0 and the “Animal number of sweat points of level +” value [1, 7] was 2. For the same compound, the “Animal number of sweat points of level ++” value [1, 7] was 1, the “Animal number of sweat points of level +++” value [1, 7] was 2 and the “Animal number … of level ++++” value [1, 7] was 5. For the same compound, the “Animal number of sweat points of level −” value [1, 7] was 0, the “Animal number of sweat points of level +” value [1, 8] was 1 and the “Animal number of sweat points of level ++” value [1, 8] was 2. For the same compound, the “Animal number of sweat points of level +++” value [1, 8] was 2, the “Animal number … of level ++++” value [1, 8] was 5 and the “Animal number of sweat points of level −” value [1, 8] was 0. The “Animal number of sweat points of level +” value [1, 9] was 1, the “Animal number of sweat points of level ++” value [1, 9] was 2 and the “Animal number of sweat points of level +++” value [1, 9] was 2. For the same compound, the “Animal number … of level ++++” value [1, 9] was 5, the “Animal number of sweat points of level −” value [1, 9] was 0 and the “Animal number of sweat points of level +” value [1, 10] was 1. The “Animal number of sweat points of level ++” value [1, 10] was 2, the “Animal number of sweat points of level +++” value [1, 10] was 2 and the “Animal number … of level ++++” value [1, 10] was 5. The “Animal number of sweat points of level −” value [1, 10] was 0, the “antiviral effective rate (ER %)” value (Enterovirus EV71) was 75.86** % and the “Body temperature (° C.)” value ([2]; 1 h after administration) was 39.21 ± 0.11 °C. For the same compound, the “antipyretic percentage (%)” value ([2]; 1 h after administration) was −1.05 ± 0.54 %, the “Body temperature (° C.)” value ([2]; 2 h after administration) was 38.92 ± 0.35 °C and the “antipyretic percentage (%)” value ([2]; 2 h after administration) was −1.7 ± 0.77 %. For the same compound, the “Body temperature (° C.)” value ([2]; 3 h after administration) was 38.71 ± 0.20 °C, the “antipyretic percentage (%)” value ([2]; 3 h after administration) was −2.32 ± 1.41 % and the “Body temperature (° C.)” value ([2]; 4 h after administration) was 38.49 ± 0.51 °C. For the same compound, the “antipyretic percentage (%)” value ([2]; 4 h after administration) was −2.88 ± 1.50 %, the “antiviral effective rate (ER %)” value [3] was 80.88** % and the “antiviral effective rate (ER %)” value (influenza virus) was 75.35** %. The “antiviral effective rate (ER %)” value [4] was 84.30** %, the Writhing times [5] was 9.7* and the “antiviral effective rate (ER %)” value (parainfluenza virus) was 80.72** %.
